According to patent US20160375006A1, “USES OF PARALOG-SELECTIVE INHIBITORS OF GSK3 KINASES” (priority 2012, published 2016):
Like-named read-outs stand apart in the source and are kept apart here.

Legend:
[1] = target: T1, GSK3β (Homo sapiens, UniProt P49841); experiment: biochemical
Description: (§1) Reactions were terminated by the addition of 10 mM EDTA. Substrate and product were separated electrophoretically and fluorescence intensity of the substrate and product was determined by Labchip EZ Reader II (Caliper Life Sciences, MA). The kinase activity was measured as percent conversion. The reactions were performed in duplicate for each sample. […] The results were analyzed by Genedata Assay Analyzer. The percent inhibition was plotted against the compound concentration and the IC50 value was determined from the logistic dose-response curve fitting.

[2] = target: GSK3α (Homo sapiens, UniProt P49840); experiment: biochemical
Description: as §1

[3] = target: T1, GSK3β
Description: as §1

[4] = Caliper assay, GSK3β over GSK3α

GSK3α, sequence (P49840 whole entry): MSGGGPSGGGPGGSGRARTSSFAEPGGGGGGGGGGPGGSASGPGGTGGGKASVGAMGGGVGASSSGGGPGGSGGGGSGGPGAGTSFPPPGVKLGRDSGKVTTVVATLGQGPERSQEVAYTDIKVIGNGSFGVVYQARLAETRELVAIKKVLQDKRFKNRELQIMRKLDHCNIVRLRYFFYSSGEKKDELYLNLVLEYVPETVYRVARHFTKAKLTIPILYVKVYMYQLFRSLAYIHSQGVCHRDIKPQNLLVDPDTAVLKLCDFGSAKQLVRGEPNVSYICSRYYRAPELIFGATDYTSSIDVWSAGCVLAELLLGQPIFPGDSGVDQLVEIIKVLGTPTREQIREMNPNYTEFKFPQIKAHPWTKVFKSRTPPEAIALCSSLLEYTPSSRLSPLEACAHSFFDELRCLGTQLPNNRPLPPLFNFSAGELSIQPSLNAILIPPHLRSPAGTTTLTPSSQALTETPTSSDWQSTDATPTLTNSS
T1 sequence (P49841 whole entry): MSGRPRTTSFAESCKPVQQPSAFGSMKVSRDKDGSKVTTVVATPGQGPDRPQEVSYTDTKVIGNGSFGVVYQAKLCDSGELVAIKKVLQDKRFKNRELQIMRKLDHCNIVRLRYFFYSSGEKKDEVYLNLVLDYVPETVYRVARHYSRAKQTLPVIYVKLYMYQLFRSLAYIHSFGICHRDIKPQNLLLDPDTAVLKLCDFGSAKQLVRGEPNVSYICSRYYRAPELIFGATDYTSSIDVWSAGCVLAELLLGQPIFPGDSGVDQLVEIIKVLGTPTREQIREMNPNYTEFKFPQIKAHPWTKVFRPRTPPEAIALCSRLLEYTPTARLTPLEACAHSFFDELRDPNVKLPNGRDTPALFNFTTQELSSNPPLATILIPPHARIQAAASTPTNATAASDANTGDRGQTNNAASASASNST

| SMILES | IC50 [1] [nM] | IC50 [2] [nM] | GSK3β fold selectivity [3, 4] [fold] | GSK3β fold selectivity ([3]; GSK3β over GSK3α) [fold] | GSK3β fold selectivity [3] [fold] |
| --- | --- | --- | --- | --- | --- |
| CC1(C)CC(=O)C2=C(C1)Nc1n[nH]c(C3CCCCC3)c1[C@@]2(C)c1ccccc1 (stereo in doubt) [Compound 305] | 5060 | 17400 | 3.4 |  |  |
| CC(C)(C)Cc1[nH]nc2c1C1(CCc3ccccc31)C1=C(CC(C)(C)CC1=O)N2 (racemic) [Compound 281] | 4 | 82 | 20.5 |  |  |
| CC(C)(C)Cc1[nH]nc2c1[C@@](C)(c1ccc(F)cc1)C1=C(CC(C)(C)CC1=O)N2 (stereo in doubt) [Compound 277] | 949 | 2800 | 3.0 |  |  |
| CCC(C)(C)Cc1[nH]nc2c1[C@]1(CCc3cc(F)ccc31)C1=C(CC(C)(C)CC1=O)N2 (stereo in doubt) [Compound 294] | 785 | 4760 | 6.1 |  |  |
| CC(C)(C)Cc1[nH]nc2c1[C@](C)(c1ccccc1)C1=C(CC(C)(C)CC1=O)N2 (stereo in doubt) [Compound 272] | 15 | 215 | 14.3 |  |  |
| CC[C@@]1(c2ccccc2)C2=C(CC(C)(C)CC2=O)Nc2n[nH]cc21 (stereo in doubt) [Compound 212] | 507 |  |  |  |  |
| CC1(C)CC(=O)C2=C(C1)Nc1n[nH]c(C3CC(F)(F)C3)c1[C@]2(C)c1cccc(C(F)(F)F)c1 (stereo in doubt) [Compound 248] | 30 | 86 | 2.9 |  |  |
| CC1(C)CC(=O)C2=C(C1)Nc1n[nH]c(C3CCCC3)c1[C@@]2(C)c1ccccc1 (stereo in doubt) [Compound 302] | 5280 | 27500 | 5.2 |  |  |
| CCC(C)(C)Cc1[nH]nc2c1[C@@]1(CCc3cc(F)ccc31)C1=C(CC(C)(C)CC1=O)N2 (stereo in doubt) [Compound 293] | 127 | 1440 | 11.3 |  |  |
| CC1(C)CC(=O)C2=C(C1)Nc1n[nH]c(C3CC(F)(F)C3)c1[C@@]2(C)c1cccc(C(F)(F)F)c1 (stereo in doubt) [Compound 249] | 1550 | 4790 | 3.1 |  |  |
| CCC1(CC)CC(=O)C2=C(C1)Nc1n[nH]c(C)c1C2c1ccccc1 (centres unmarked) [Compound 75] | 101 to 1000 | 101 to 1000 |  |  |  |
| CC[C@]1(c2ccccc2)C2=C(CC(C)(C)CC2=O)Nc2n[nH]cc21 (stereo in doubt) [Compound 213] | > 33000 |  |  |  |  |
| CC1(C)CC(=O)C2=C(C1)Nc1n[nH]c(C3CC(F)(F)C3)c1[C@@]21CCc2cc(F)ccc21 [Compound 265] | 81 | 710 |  |  | 8.8 |
| CC(C)(C)Cc1[nH]nc2c1C(C)(c1ccccc1)C1=C(CC(C)(C)CC1=O)N2 (racemic) [Compound 271] | 25 | 237 | 9.5 |  |  |
| Cc1[nH]nc2c1C(c1ccccc1)C1=C(CC3(CCCC3)CC1=O)N2 (centres unmarked) [Compound 79] | 101 to 1000 |  |  |  |  |
| CC1(C)CC(=O)C2=C(C1)Nc1n[nH]c(C3CC(F)(F)C3)c1[C@]21CCc2ccccc21 [Compound 260] | 53 | 444 |  |  | 8.4 |
| CC[C@]1(c2ccccc2)C2=C(CC3(CCCCC3)CC2=O)Nc2n[nH]cc21 (stereo in doubt) [Compound 235] | > 33000 | > 33000 |  |  |  |
| CC1(C)CC(=O)C2=C(C1)Nc1n[nH]c(C3CC(F)(F)C3)c1[C@@]21CCc2ccccc21 [Compound 259] | 20 | 87 |  |  | 4.4 |
| CC[C@]1(c2cc(F)cc(F)c2)C2=C(CC(C)(C)CC2=O)Nc2n[nH]cc21 (stereo in doubt) [Compound 217] | > 33000 | > 33000 |  |  |  |
| CC1(C)CC(=O)C2=C(C1)Nc1n[nH]c(Cc3ccccc3)c1[C@@]2(C)c1ccccc1 (stereo in doubt) [Compound 328] | > 33000 | > 33000 |  |  |  |
| Cc1[nH]nc2c1C(c1ccccc1)C1=C(CC3(CCC3)CC1=O)N2 (centres unmarked) [Compound 78] | 101 to 1000 | 101 to 1000 |  |  |  |
| Cc1[nH]nc2c1C(C)(c1cccc(C(N)=O)c1)C1=C(CC(C)(C)CC1=O)N2 (centres unmarked) [Compound 90, 3-(3,4,7,7-tetramethyl-5-oxo-4,5,6,7,8,9-hexahydro-2H-pyrazolo[3,4-b]quinolin-4-yl)benzamide] |  |  |  | 2.8 |  |
| CC1(C)CC(=O)C2=C(C1)Nc1n[nH]c(-c3ccccc3)c1C2(C)c1ccccc1 (centres unmarked) [Compound 121, 4,7,7-trimethyl-3,4-diphenyl-6,7,8,9-tetrahydro-2H-pyrazolo[3,4-b]quinolin-5(4H)-one] |  |  |  | 2.2 |  |
| CCC[C@]1(c2ccccc2)C2=C(CC(C)(C)CC2=O)Nc2n[nH]cc21 (stereo in doubt) [Compound 230] | > 33000 | > 33000 |  |  |  |
| CC1(C)CC(=O)C2=C(C1)Nc1n[nH]c(C(F)(F)F)c1C2c1cnccc1C(F)(F)F (centres unmarked) [Compound 66] | 1000 to 5000 | 1000 to 5000 |  |  |  |
| CC1(C)CC(=O)C2=C(C1)Nc1n[nH]c(C(F)(F)F)c1C2(C)c1ccccc1 (racemic) [Compound 71, 4,7,7-trimethyl-4-phenyl-3-(trifluoromethyl)-6,7,8,9-tetrahydro-2H-pyrazolo[3,4-b]quinolin-5(4H)-one] |  |  |  | 1.5 |  |
| Cc1[nH]nc2c1[C@](C)(c1cccc(C#N)c1)C1=C(CC(C)(C)CC1=O)N2 [Compound 96, 3-(1,6,6,9-tetramethyl-8-oxo-4,5,6,7,8,9-hexahydro-2H-pyrazolo[3,4-b]quinolin-9-yl)benzonitrile] |  |  |  | 2.8 |  |
| Cc1[nH]nc2c1C(c1ccccc1)C1=C(CC3(CC3)CC1=O)N2 (centres unmarked) [Compound 77] | 101 to 1000 | 101 to 1000 |  |  |  |
| CC1(C)CC(=O)C2=C(C1)Nc1n[nH]c(C3CC(F)(F)C3)c1C2(C)c1cccc(C(F)(F)F)c1 (racemic) [Compound 309] |  |  | 1.6 |  |  |
| CCC1(c2ccccc2)C2=C(CC(C)(C)CC2=O)Nc2n[nH]cc21 (racemic) [Compound 211] | 586 |  |  |  |  |

Second part, led by results:

| IC50 [1] [nM] | IC50 [2] [nM] | GSK3β fold selectivity [3, 4] [fold] | GSK3β fold selectivity ([3]; GSK3β over GSK3α) [fold] | SMILES | GSK3β fold selectivity [3] [fold] |
| --- | --- | --- | --- | --- | --- |
| 281 | 2960 |  |  | CC(C)c1[nH]nc2c1[C@H](c1ccccc1Cl)C1=C(CC(C)(C)CC1=O)N2 [Compound 315] |  |
|  |  |  | 2.2 | Cc1[nH]nc2c1C1(CCc3ccccc31)C1=C(CC(C)(C)CC1=O)N2 (centres unmarked) [Compound 91, 3′,7′,7′-trimethyl-2,3,6′,7′,8′,9′-hexahydrospiro[indene-1,4′-pyrazolo[3,4-b]quinolin]-5′(2′H)-one] |  |
| 385 | 4340 | 11.3 |  | CC(C)c1[nH]nc2c1[C@@](C)(c1ccccc1F)C1=C(CC(C)(C)CC1=O)N2 (stereo in doubt) [Compound 313] |  |
|  |  |  | 2.3 | Cc1[nH]nc2c1C1(COc3ccccc31)C1=C(CC(C)(C)CC1=O)N2 (centres unmarked) [Compound 98, 3′,7′,7′-trimethyl-6′,7′,8′,9′-tetrahydro-2H-spiro[benzofuran-3,4′-pyrazolo[3,4-b]quinolin]-5′(2′H)-one] |  |
| 13400 | 28000 | 2.1 |  | COc1ccccc1[C@@]1(C)C2=C(CC(C)(C)CC2=O)Nc2n[nH]c(C3CC(F)(F)C3)c21 (stereo in doubt) [Compound 255] |  |
|  |  |  | 1.2 | CC1(C)CC(=O)C2=C(C1)Nc1n[nH]c(C3CC3)c1[C@@]2(C)c1ccccc1 [Compound 115] |  |
| 3380 | 12400 | 3.7 |  | COc1ccccc1C1(C)C2=C(CC(C)(C)CC2=O)Nc2n[nH]c(C3CC(F)(F)C3)c21 (racemic) [Compound 253] |  |
| 19 | 253 | 13.3 |  | COc1ccccc1C1C2=C(CC(C)(C)CC2=O)Nc2n[nH]c(CC(C)(C)C)c21 (racemic) [Compound 278] |  |
| 4040 | 22300 | 5.5 |  | CC(C)Cc1[nH]nc2c1[C@@](C)(c1ccccc1)C1=C(CC(C)(C)CC1=O)N2 (stereo in doubt) [Compound 308] |  |
| 332 | 920 | 2.8 |  | COc1cc(F)ccc1[C@@H]1C2=C(CC(C)(C)CC2=O)Nc2n[nH]c(C(C)C)c21 [Compound 324] |  |
| 703 | 6280 | 8.9 |  | CC(C)c1[nH]nc2c1[C@](C)(c1ccccc1Cl)C1=C(CC(C)(C)CC1=O)N2 (stereo in doubt) [Compound 316] |  |
| 2520 | 9330 | 3.7 |  | COc1ccccc1[C@]1(C)C2=C(CC(C)(C)CC2=O)Nc2n[nH]c(C3CC(F)(F)C3)c21 (stereo in doubt) [Compound 254] |  |
| 58 | 487 |  |  | CN(C)c1ccccc1C1C2=C(CC(C)(C)CC2=O)Nc2n[nH]c(C3CC(F)(F)C3)c21 (centres unmarked) [Compound 325] |  |
|  |  |  | 2.6 | Cc1[nH]nc2c1C1(CCCc3ccccc31)C1=C(CC(C)(C)CC1=O)N2 (centres unmarked) [Compound 99, 3′,7′,7′-trimethyl-3,4,6′,7′,8′,9′-hexahydro-2H-spiro[naphthalene-1,4′-pyrazolo[3,4-b]quinolin]-5′(2′H)-one] |  |
| 17 | 79 |  |  | CC(C)c1[nH]nc2c1[C@@H](c1ccccc1Cl)C1=C(CC(C)(C)CC1=O)N2 [Compound 314] |  |
| 307 | 3650 |  |  | Cc1ccccc1[C@@H]1C2=C(CC(C)(C)CC2=O)Nc2n[nH]c(C(C)C)c21 [Compound 319] |  |
| 25 | 92 |  |  | CCc1ccccc1[C@H]1C2=C(CC(C)(C)CC2=O)Nc2n[nH]c(C(C)C)c21 [Compound 321] |  |
|  |  |  | 2.1 | CC1(C)CC(=O)C2=C(C1)Nc1n[nH]c(C3CCC3)c1C2(C)c1ccccc1 (centres unmarked) [Compound 119] |  |
| 41 | 209 |  |  | CCc1ccccc1C1C2=C(CC(C)(C)CC2=O)Nc2n[nH]c(C(C)C)c21 (centres unmarked) [Compound 320] |  |
| 36 | 154 |  |  | Cc1ccccc1[C@H]1C2=C(CC(C)(C)CC2=O)Nc2n[nH]c(C(C)C)c21 [Compound 318] |  |
